Measured values reported in publication PMC6152057, “Multifunctional Cinnamic Acid Derivatives” (Molecules : A Journal of Synthetic Chemistry and Natural …, 2017).
Several values for one entry are separate records, joined by “and”; a condition that tells them apart may be missing. Equal entries are not always repeated. Entries after “also recorded” stand apart in the source; their conditions may differ.

Tests used:
[1] = Inhibition of linoleic acid lipid peroxidation (AAPH); details: 100 μM; AAPH-induced oxidation of sodium linoleate, pH 7.4, 37 °C; na = no activity
Protocol: Production of conjugated diene hydro peroxide by oxidation of sodium linoleate in an aqueous solution was monitored at 234 nm. AAPH was used as a free radical initiator. Ten microliters of the 16 mM sodium linoleate solution was added to the UV cuvette containing 930 μL of 0.05 M phosphate buffer, pH 7.4 prethermostated at 37 °C. The oxidation reaction was initiated at 37 °C under air by the addition of 50 μL of 40 mM AAPH solution. 10 μL of the appropriate solutions of the tested compounds were added in the mixture. Lipid oxidation was measured in the presence of the same level of DMSO. The rate of oxidation at 37 °C was monitored by recording the increase in absorption at 234 nm caused by conjugated diene hydro peroxides [24].

[2] = target: T1, trypsin (Bos taurus, UniProt P00760); test: Inhibition of trypsin induced proteolysis in vitro (modified Kunitz method); format: biochemical, bovine; details: for IC50: bovine albumin substrate, pH 7.6, 37 °C, read-out: IC50 μΜ, inhibition of trypsin induced proteolysis
T1 construct: purchased Sigma Chemical, Co. (St. Louis, MO, USA); host or cells: bovine pancreas
T1 sequence (P00760 24-246): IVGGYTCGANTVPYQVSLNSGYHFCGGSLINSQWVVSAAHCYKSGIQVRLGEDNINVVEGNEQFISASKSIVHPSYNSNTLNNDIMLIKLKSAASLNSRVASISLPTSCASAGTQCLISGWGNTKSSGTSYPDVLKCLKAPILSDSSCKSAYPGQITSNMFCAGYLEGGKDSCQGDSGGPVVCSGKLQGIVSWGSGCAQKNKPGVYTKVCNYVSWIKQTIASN
Protocol: All chemicals, solvents, chemical and biochemical reagents were of analytical grade and purchased from commercial sources (Merck, Merck KGaA, Darmstadt, Germany, Fluka Sigma-Aldrich Laborchemikalien GmbH, Hannover, Germany, Alfa Aesar, Karlsruhe, Germany and Sigma, St. Louis, MO, USA). Soybean lipoxygenase, pancreatic bovine trypsin, sodium linoleate, 2,2-azobis (2-amidinopropane) dihydrochloride (AAPH) were obtained from Sigma Chemical, Co. (St. Louis, MO, USA).
The test was carried out according to a modified Kunitz method. Bovine albumin was used as substrate for trypsin [24]. The reaction mixture consisted of 200 μL of 0.075 mg/mL trypsin and 780 μL of phosphate buffer pH 7.6 (including the tested compounds (20 μL in DMSO, final concentration 100 μM) preincubated at 37 °C for 20 min and then 1 mL of albumin (stock solution 6 g/100 mL in phosphate buffer 0.1 M, pH 7.6) was added and incubated at 37 °C for 30 min. After the incubation 1 mL of 5% trichloroacetic acid was added to the incubated solution to stop the enzyme’s reaction and allowed to set at room temperature for 1 h. Then the solution was filtered and the absorption of the filtered solution was measured at 280 nm.

[3] = Lipophilicity as RM values by RP-TLC; format: physicochemical; parameters: key: RM = log[(1/Rf) − 1]; details: MeOH:H2O (70/30), average of at least 5 measurements
Protocol: Reversed phase TLC (RP-TLC) was performed on silica gel plates impregnated with 5% (v/v) liquid paraffin in light petroleum ether. The mobile phase was a methanol/water mixture (70/30, v/v). The plates were developed in closed chromatography tanks saturated with the mobile phase at 24 °C. Spots were detected under UV light. RM values were determined from the corresponding Rf values (from five individual measurements) using the equation RM = log[(1/Rf) − 1] (Table 1).

[4] = target: T2, soybean lipoxygenase (Glycine max, UniProt P08170); test: Soybean lipoxygenase inhibition in vitro (UV-based enzyme assay); format: biochemical; details: for IC50: sodium linoleate substrate, tris buffer pH 9, read-out: IC50 μΜ, inhibition of soybean lipoxygenase
T2 construct: purchased Sigma Chemical, Co. (St. Louis, MO, USA)
T2 sequence (P08170 1-839): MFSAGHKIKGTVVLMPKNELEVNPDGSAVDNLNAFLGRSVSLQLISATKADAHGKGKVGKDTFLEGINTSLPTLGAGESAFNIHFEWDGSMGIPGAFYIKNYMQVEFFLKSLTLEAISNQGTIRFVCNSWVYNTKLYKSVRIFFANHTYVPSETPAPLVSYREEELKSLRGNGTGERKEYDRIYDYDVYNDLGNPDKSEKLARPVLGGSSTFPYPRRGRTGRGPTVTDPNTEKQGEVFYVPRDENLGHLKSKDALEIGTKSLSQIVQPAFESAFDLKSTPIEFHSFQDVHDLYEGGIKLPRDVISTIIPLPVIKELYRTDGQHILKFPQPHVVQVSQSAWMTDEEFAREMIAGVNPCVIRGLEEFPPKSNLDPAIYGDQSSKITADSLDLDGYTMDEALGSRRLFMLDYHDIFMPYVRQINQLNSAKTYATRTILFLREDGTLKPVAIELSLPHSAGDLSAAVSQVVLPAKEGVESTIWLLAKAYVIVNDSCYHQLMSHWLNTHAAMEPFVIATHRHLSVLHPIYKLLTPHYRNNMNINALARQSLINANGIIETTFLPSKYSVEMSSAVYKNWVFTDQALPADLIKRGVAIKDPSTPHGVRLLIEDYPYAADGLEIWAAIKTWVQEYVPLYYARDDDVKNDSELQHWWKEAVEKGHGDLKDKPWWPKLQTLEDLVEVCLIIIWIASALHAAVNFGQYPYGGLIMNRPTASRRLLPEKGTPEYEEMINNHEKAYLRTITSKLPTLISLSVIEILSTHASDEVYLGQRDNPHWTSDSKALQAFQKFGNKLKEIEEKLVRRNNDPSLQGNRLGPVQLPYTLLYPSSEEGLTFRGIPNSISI
Protocol: The tested compounds were dissolved in DMSO (10 μL) and incubated at room temperature with sodium linoleate (100 mM) and 0.2 mL of enzyme solution (1/9 × 10^−4 w/v in saline) in buffer pH 9 (tris) at room temperature (final volume 1 mL). […] Several concentrations were used for the determination of IC50 values.

[5] = tested on: L929 mouse fibroblasts cells; test: Cytotoxicity, propidium iodide fluorescence method; format: cell-based; details: 24 h incubation, 1–100 μM
Protocol: The cytotoxicity of the synthesized derivatives was determined using the propidium iodide (PI) fluorescence method in the presence of different concentrations (1–100 μM) of these compounds. L929 mouse fibroblasts cells were used in this work since they have been previously used in the study of the pharmacological effects of antioxidant and anti-inflammatory agents. The cytotoxicity results of the new compounds against normal cells (such as the L929 fibroblasts) would give useful information as only non-cytotoxic compounds should be further evaluated as potential antioxidant drugs. The results are presented in Figure 1 in the form of the % cell survival values as propidium iodide % (PI)—values PI% for the examined compounds.
L929 mouse fibroblasts cells were cultured in EMEM supplemented with 10% horse serum, 2 mM L-glutamine, 1 mM sodium pyruvate, 0.1 mM nonessential amino acids, 1.5 g/L sodium bicarbonate and 100 μg/mL penicillin–streptomycin at 37 °C in a humidified atmosphere with 5% CO2. L929 cells were plated into 24-well plates at a density […] and allowed to attach and grow for 24 h. […] After 24 h incubation, the supernatant was removed and the cells were washed with PBS. […] The PI fluorescence (cell death) was determined with flow cytometry, FACS Calibur, Coulter Epics XL-MCL (Beckman, Inc., Mount Holly, NJ, USA). […]

| Compound | ILP% @100 μΜ (% inhibition of lipid peroxidation) [1] | melting point | IC50 [2] | RM (±SD) [3] | IC50 [4] | Soybean LOX inhibition (in words) [4] | inhibition at 100 µM ([4]; 100 μM, na = no activity under the reported experimental conditions, read-out: LOX Inh. % @ 100 μΜ) | Anti-proteolytic activity, trypsin inhibition (in words) [2] | inhibition at 100 µM ([2]; 100 μM, na = no activity under the reported experimental conditions, read-out: Trypsin Inh. % @100 μM) | Cytotoxicity on L929 cells as PI% values (in words) [5] |
| --- | --- | --- | --- | --- | --- | --- | --- | --- | --- | --- |
| CC(C)N(CC(O)COc1cccc2ccccc12)C(=O)/C=C/c1cccc(Oc2ccccc2)c1 (stereo not shown) [Compound 2b, (E)N-(2-hydroxy-3-(naphthalen-1-yloxy)propyl)-N-isopropyl-3-(3phenoxyphenyl) acrylamide] | 84% | 118 to 120 °C | 0.425 µM | 0.907 and 0.907 ± 0.008 | 6 µM |  |  |  |  |  |
| COc1ccc(/C=C/C(=O)N(CC(O)COc2ccc(CC(N)=O)cc2)C(C)C)cc1OC (stereo not shown) [Compound 3a] | 86% | 176 to 178 °C | 1 µM | −0.841 and −0.841 ± 0.0014 | 10 µM |  |  |  |  |  |
| O=C(/C=C/c1ccccc1)OCCN(Cc1ccccc1)C(=O)/C=C/c1ccccc1 [Compound 1f, 2-(N-benzylcinnamamido) ethyl cinnamate] | inactive |  | 100 µM | 0.1402 ± 0.0227 |  | low or no activity | 20% |  |  |  |
| O=C(O)/C=C/c1cccc(Oc2ccccc2)c1 [Compound 2, (E)-3-(3-phenoxyphenyl)acrylic acid] | 84% |  |  | −0.41 ± 0.016 | 66 µM |  |  |  |  |  |
| CC(C)NCC(O)COc1ccc(CC(N)=O)cc1 (stereo not shown) [Atenolol, atenolol, reference compound] |  |  |  |  | 22.5 µM |  |  | did not present any activity |  |  |
| O=C(O)c1ccccc1O [Salicylic acid, reference compound] |  |  |  |  |  |  |  |  | 53.6% |  |
| O=C(/C=C/c1ccccc1)Oc1cccc2ccccc12 [Compound 1d, (E)-naphthalen-1-yl cinnamate] | inactive | 210 to 212 °C |  | 0.0889 ± 0.002 | 27.5 µM | low or no activity |  |  |  |  |
| CC(C)N(CC(O)COc1ccc(CC(N)=O)cc1)C(=O)/C=C/c1ccccc1 (stereo not shown) [Compound 1a] | 97% | 102 to 105 °C | 0.315 µM | −0.720 and −0.720 ± 0.012 | 66 µM |  |  |  |  |  |
| CC(C)N(CC(O)COc1cccc2ccccc12)C(=O)/C=C/c1ccccc1 (stereo not shown) [Compound 1b, (E)-N-(2-hydroxy-3-(naphthalen-1-yloxy)propyl)-N-isopropylcinnamamide] | 69% |  | 10 µM | 0.411 and 0.411 ± 0.061 | 50 µM |  |  |  |  | remarkable cytotoxicity |
| CC(C)N(C[C@H](O)COc1cccc2ccccc12)C(=O)/C=C/c1cccc(Oc2ccccc2)c1 [Compound S-2b, (S)-N-(2-hydroxy-3-(naphth-1-yloxy)propyl)-N-isopropyl-3-(3-phenoxyphenyl) acrylamide] | 86% |  | 2.75 µM |  | 6 µM |  |  |  |  |  |
| CC(C)N(CC(O)COc1ccc(CC(N)=O)cc1)C(=O)/C=C/c1cccc(Oc2ccccc2)c1 (stereo not shown) [Compound 2a] | 86% |  | 0.325 µM | 0.128 ± 0.0204 | 35 µM |  |  |  |  | remarkable cytotoxicity |
| 3,4-dimethoxycaffeic acid [Compound 3] | 86% |  |  | −0.869 ± 0.0614 |  |  |  |  |  |  |
| O=C(O)/C=C/c1ccccc1 [Compound 1, cinnamic acid] | 78% |  |  | −0.485 and −0.485 ± 0.044 |  |  |  |  |  |  |
| Cc1c(C)c2c(c(C)c1O)CCC(C)(C(=O)O)O2 (stereo not shown) [Trolox, reference compound] | 93% |  |  |  |  |  |  |  |  |  |
| (E)-2-(benzylamino) ethyl 3-phenylacrylate [Compound 1e] |  |  |  | −0.374 ± 0.0176 | 100 µM | low or no activity |  |  |  |  |
| COc1ccc(/C=C/C(=O)N(CC(O)COc2cccc3ccccc23)C(C)C)cc1OC (stereo not shown) [Compound 3b, (E)-3-(3,4-dimethoxyphenyl)-N-(2-hydroxy-3-(naphthalen-1-yloxy)propyl)-N-isopropylacrylamide] | 71% | 172 to 174 °C | 0.516 µM | 0.0819 and 0.0819 ± 0.01 | 10 µM |  |  |  |  |  |
| O=C(/C=C/c1ccccc1)OC12CC3CC(CC(C3)C1)C2 [Compound 1c, (E)-adamantan-1-yl cinnamate] |  | 183 to 185 °C | 49 µM | 0.911 and 0.911 ± 0.0112 |  | low or no activity; also recorded: inactive |  |  |  |  |
